Converted amounts (≈) assume the structure as drawn.
Experiments:
[1] = tested on: Human rhinovirus sp.; assay: Antiviral activity against Human rhinovirus A2 infected in human HeLa-RH cells assessed as inhibition of cytopathic effect by microscopy based analysis; type: functional, organism-based
[2] = tested on: Enterococcus faecalis; assay: Bactericidal activity against Enterococcus faecalis; type: functional
[3] = tested on: Enterovirus A71; assay: Antiviral activity against human EV71 infected in human RD cells assessed as inhibition of cytopathic effect by microscopy based analysis; type: functional, organism-based; conditions: Enterovirus A
[4] = tested on: Staphylococcus aureus; assay: Antibacterial activity against Staphylococcus aureus CIP 54127 assessed as reduction in bacterial growth by micro-broth dilution method; type: functional
[5] = Cytotoxicity against human Huh-7 cells; type: toxicity, cell-based
[6] = tested on: Pseudomonas aeruginosa; assay: Antibacterial activity against Pseudomonas aeruginosa CIP A22 assessed as reduction in bacterial growth by micro-broth dilution method; type: functional
[7] = tested on: Human rhinovirus sp.; assay: Antiviral activity against Human rhinovirus B14 infected in human HeLa-RH cells assessed as inhibition of cytopathic effect by microscopy based analysis; type: functional, organism-based
[8] = Cytotoxicity against human HeLa-RH cells; type: toxicity, cell-based
[9] = Cytotoxicity against African green monkey Vero E6 cells; type: toxicity, cell-based, Vero C1008; conditions: chlorocebus sabaeus
[10] = tested on: Escherichia coli; assay: Ratio of MBC to MIC for Escherichia coli CIP 53154; type: functional
[11] = tested on: Enterococcus faecalis; assay: Antibacterial activity against Enterococcus faecalis assessed as reduction in bacterial growth by micro-broth dilution method; type: functional
[12] = tested on: Staphylococcus aureus; assay: Ratio of MBC to MIC for Staphylococcus aureus CIP 54127; type: functional
[13] = tested on: Yellow fever virus; assay: Antiviral activity against Yellow fever virus infected in human Huh-7 cells assessed as inhibition of cytopathic effect by microscopy based analysis; type: functional, organism-based
[14] = tested on: Pseudomonas aeruginosa; assay: Bactericidal activity against Pseudomonas aeruginosa CIP A22; type: functional
[15] = tested on: Enterococcus faecalis; assay: Ratio of MBC to MIC for Enterococcus faecalis; type: functional
[16] = tested on: Escherichia coli; assay: Bactericidal activity against Escherichia coli CIP 53154; type: functional
[17] = tested on: Pseudomonas aeruginosa; assay: Ratio of MBC to MIC for Pseudomonas aeruginosa CIP A22; type: functional
[18] = tested on: Zika virus; assay: Antiviral activity against Zika virus infected in african green monkey Vero E6 cells assessed as inhibition of cytopathic effect by microscopy based analysis; type: functional, organism-based; conditions: Vero C1008
[19] = Cytotoxicity against African green monkey Vero A cells; type: toxicity, cell-based; conditions: chlorocebus sabaeus
[20] = Selectivity index, ratio of CC50 for human Huh-7 cells to IC50 for Yellow fever virus infected in human Huh-7 cells; type: toxicity, cell-based; conditions: read-out: Ratio CC50/IC50
[21] = tested on: Escherichia coli; assay: Antibacterial activity against Escherichia coli CIP 53154 assessed as reduction in bacterial growth by micro-broth dilution method; type: functional
[22] = tested on: Staphylococcus aureus; assay: Bactericidal activity against Staphylococcus aureus CIP 54127; type: functional
[23] = Selectivity index, ratio of CC50 for African green monkey Vero E6 cells to IC50 for Zika virus infected in african green monkey Vero E6 cells; type: toxicity; conditions: read-out: Ratio CC50/IC50
[24] = Cytotoxicity against human RD cells; type: toxicity, cell-based
[25] = tested on: Chikungunya virus; assay: Antiviral activity against CHIKV infected in African green monkey Vero A cells assessed as inhibition of cytopathic effect by microscopy based analysis; type: functional, organism-based
[26] = tested on: SARS-CoV-2; assay: Antiviral activity against SARS-CoV-2 HCoV-19/Egypt/NRC-03/2020 infected in African green monkey Vero E6 cells assessed as inhibition of virus induced cytopathic effect pre-infected with virus for 1 hr followed by compound addition and measured after 72 hrs by crystal violet staining based analysis; type: functional, organism-based; conditions: Severe acute respiratory syndrome coronavirus 2, HCoV-19/Egypt/NRC-03/2020, Vero C1008
[27] = tested on: Pseudomonas aeruginosa; assay: Antibacterial activity against Pseudomonas aeruginosa; type: functional
[28] = tested on: Staphylococcus aureus; assay: Antibacterial activity against Staphylococcus aureus; type: functional
[29] = Selectivity index, ratio of CC50 for human HeLa-RH cells to IC50 for Human rhinovirus B14 infected in human HeLa-RH cells; type: toxicity, cell-based; conditions: read-out: Ratio CC50/IC50
[30] = Selectivity index, ratio of CC50 for human HeLa-RH cells to IC50 for Human rhinovirus A2 infected in human HeLa-RH cells; type: toxicity, cell-based; conditions: read-out: Ratio CC50/IC50

`CCOP(=O)(OCC)C(Nc1ccccc1Cl)c1cc(Cn2cc(Cn3c(=O)cc(C)c4cc(Br)ccc43)nn2)ccc1O` (stereo not drawn) gave an IC50 [1] of over 0.41 µM, an MBC [2] of 60 µM (≈ 42.1 µg/mL) and an IC50 [3] of over 100 µM. For the same compound, the MIC [4] was 440 µM (≈ 308 µg/mL), the CC50 [5] was 20 µM and the MIC [6] was 1780 µM (≈ 1250 µg/mL). For the same compound, the IC50 [7] was over 33.3 µM, the CC50 [8] was 9.88 µM and the CC50 [9] was over 100 µM. The Ratio [10] was 1, the MIC [11] was 60 µM (≈ 42.1 µg/mL) and the Ratio [12] was 1. The IC50 [13] was 9.91 µM, the MBC [14] was 1780 µM (≈ 1250 µg/mL) and the Ratio [15] was 1. For the same compound, the MBC [16] was 440 µM (≈ 308 µg/mL), the Ratio [17] was 4.05 and the IC50 [18] was 71.5 µM. The CC50 [19] was 7.58 µM, the selectivity ratio [20] was 2.02 and the MIC [21] was 440 µM (≈ 308 µg/mL). The MBC [22] was 440 µM (≈ 308 µg/mL), the selectivity ratio [23] was over 1.4 and the CC50 [24] was over 100 µM. The IC50 [25] was over 100 µM.

`Fc1ccc2nc(C(F)(F)F)cc(OCc3cn(-c4ccccc4Cl)nn3)c2c1` showed an IC50 [26] of 60 µM.

With `COC(=O)C(NC(=O)c1ccccc1)n1cc(Cn2c(=O)cc(C(=O)N[C@H](C)C(=O)OC)c3ccccc32)nn1` (stereo partly drawn) the MIC [27] was 78 µg/mL (≈ 143 µM) and the MIC [28] was 39 µg/mL (≈ 71.4 µM).

`Cc1cc(CCCOc2c(C)cc(-c3noc(C(F)(F)F)n3)cc2C)on1` [PLECONARIL] showed an IC50 [1] of 0.44 µM, an IC50 [7] of 0.2 µM and a CC50 [8] of over 100 µM. For the same compound, the selectivity ratio [29] was over 500 and the selectivity ratio [30] was over 227.

Reference: ChEMBL document CHEMBL5505983, “Design, synthesis, and molecular modeling studies of novel 2-quinolone-1,2,3-triazole-α-aminophosphonates hybrids as dual antiviral and antibacterial agents” (Eur J Med Chem, 2024)
